# In ChEMBL document CHEMBL1201862, “PubChem BioAssay data set” (2004):
# Active and inactive are the calls of the source.
# What was measured:
# [1] = test system: Streptococcus sp. 'group A'; test: growth inhibition of control SK(-) GAS strain, dose response, counter-screen for streptokinase expression inhibitor project, luminescence, kanamycin, BacTiterGlo, confirmation (AID 1900); type: functional, organism-based
# Streptokinase A = target: T1, Streptokinase A (Streptococcus pyogenes serotype M1, UniProt P10520); test: S. pyogenes streptokinase expression inhibitors, potency, dose response, plasminogen activation absorbance, OD405 (AID 1914); type: functional, Streptococcus pyogenes M1 GAS;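 also: secreted streptokinase activity via plasminogen activation per viability signal from cell pellet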
# T1 sequence (P10520 whole entry): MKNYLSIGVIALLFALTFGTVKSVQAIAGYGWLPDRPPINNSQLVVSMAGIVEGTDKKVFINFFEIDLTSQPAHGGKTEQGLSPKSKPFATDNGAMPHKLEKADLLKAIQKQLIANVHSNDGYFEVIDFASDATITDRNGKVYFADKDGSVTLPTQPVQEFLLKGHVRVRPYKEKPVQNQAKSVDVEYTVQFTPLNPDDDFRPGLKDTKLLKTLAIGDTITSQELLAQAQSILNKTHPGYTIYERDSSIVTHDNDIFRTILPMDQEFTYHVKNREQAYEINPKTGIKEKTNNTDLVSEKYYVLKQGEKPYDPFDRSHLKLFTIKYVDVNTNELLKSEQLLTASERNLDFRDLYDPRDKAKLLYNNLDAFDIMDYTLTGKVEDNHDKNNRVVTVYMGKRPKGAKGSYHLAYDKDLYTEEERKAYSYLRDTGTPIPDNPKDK
# [2] = target: T2, Mannose-6-phosphate isomerase (Homo sapiens, UniProt P34949); test: inhibitors of human PMI, primary screen, biochemical, fluorescence intensity, coupled assay (AID 1209)
# T2 sequence (P34949 whole entry): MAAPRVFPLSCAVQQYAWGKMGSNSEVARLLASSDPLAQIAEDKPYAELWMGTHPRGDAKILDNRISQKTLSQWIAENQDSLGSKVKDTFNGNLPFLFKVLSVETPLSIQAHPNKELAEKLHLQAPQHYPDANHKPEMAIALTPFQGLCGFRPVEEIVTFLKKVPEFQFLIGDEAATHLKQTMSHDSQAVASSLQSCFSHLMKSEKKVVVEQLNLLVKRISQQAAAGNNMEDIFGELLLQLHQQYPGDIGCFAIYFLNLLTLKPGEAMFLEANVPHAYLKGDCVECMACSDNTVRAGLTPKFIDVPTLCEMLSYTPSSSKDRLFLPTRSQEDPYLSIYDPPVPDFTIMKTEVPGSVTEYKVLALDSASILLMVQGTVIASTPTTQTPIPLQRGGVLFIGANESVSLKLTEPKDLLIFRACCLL
# Streptococcus = test: Group A Streptococcus viability loss, dose response, counter-screen for streptokinase expression inhibitor project, luminescence, BacTiterGlo (AID 1915); type: functional, organism-based;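 also: potency for reduction of bacterial viability or growth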
# [3] = target: T2, Mannose-6-phosphate isomerase; test: human PMI inhibitors, high substrate, primary screen, biochemical, fluorescence intensity, high mannose 6-phosphate (AID 1220)
# [4] = target: T3, Eukaryotic translation initiation factor 2-alpha kinase 3 (Homo sapiens, UniProt Q9NZJ5); test: Dose response cell-based high-throughput screening assay to measure PERK inhibition. [Related pubchem assays: 1416 ]; type: functional
# T3 sequence (Q9NZJ5 whole entry): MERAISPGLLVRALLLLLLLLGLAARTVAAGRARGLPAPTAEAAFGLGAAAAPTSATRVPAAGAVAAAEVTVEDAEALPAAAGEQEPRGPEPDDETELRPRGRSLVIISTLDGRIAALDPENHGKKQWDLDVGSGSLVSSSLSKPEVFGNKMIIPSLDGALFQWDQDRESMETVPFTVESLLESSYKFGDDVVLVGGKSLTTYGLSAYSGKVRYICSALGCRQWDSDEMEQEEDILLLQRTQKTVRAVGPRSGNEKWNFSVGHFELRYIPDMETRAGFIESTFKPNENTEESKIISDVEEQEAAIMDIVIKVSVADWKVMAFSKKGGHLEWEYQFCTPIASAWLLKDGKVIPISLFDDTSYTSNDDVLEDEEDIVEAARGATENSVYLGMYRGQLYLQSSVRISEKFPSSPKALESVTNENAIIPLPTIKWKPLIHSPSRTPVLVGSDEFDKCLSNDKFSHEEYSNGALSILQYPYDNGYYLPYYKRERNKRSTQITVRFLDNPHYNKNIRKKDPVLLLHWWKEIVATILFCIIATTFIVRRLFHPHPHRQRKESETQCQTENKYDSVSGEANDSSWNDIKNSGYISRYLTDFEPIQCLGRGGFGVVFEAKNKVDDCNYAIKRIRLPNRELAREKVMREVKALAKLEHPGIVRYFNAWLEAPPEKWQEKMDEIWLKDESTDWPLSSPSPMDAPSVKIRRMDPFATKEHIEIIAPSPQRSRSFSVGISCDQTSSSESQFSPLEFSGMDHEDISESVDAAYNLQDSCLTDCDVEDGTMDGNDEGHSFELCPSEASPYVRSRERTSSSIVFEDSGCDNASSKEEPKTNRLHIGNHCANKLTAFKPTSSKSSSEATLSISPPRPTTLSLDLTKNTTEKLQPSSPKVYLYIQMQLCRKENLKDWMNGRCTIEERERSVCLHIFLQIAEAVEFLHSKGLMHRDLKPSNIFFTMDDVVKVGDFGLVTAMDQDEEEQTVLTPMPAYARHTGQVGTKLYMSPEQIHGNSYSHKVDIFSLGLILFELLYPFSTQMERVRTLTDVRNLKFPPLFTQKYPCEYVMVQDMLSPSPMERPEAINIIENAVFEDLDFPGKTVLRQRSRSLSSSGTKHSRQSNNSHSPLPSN
# [5] = target: T3, Eukaryotic translation initiation factor 2-alpha kinase 3; test: Counterscreen assay for PERK inhibitors: Dose response cell-based high throughput screening assay to measure inhibition of PERK at 6 hours. [Related pubchem assays: 1522, 1416 ]; type: functional
# [6] = target: T4, Aryl hydrocarbon receptor (Homo sapiens, UniProt P35869); test: Luminescence-based cell-based high throughput dose response assay for activators of the Aryl Hydrocarbon Receptor (AHR). [Related pubchem assays: 2796 (Primary screen (AHR activators in singlicate)), 2845 (Confirmation screen (AHR activators in triplicate)), 434939 (Counterscreen (PXR activators in triplicate)), 2804 (Summary (AHR activators))]; type: ADME
# T4 sequence (P35869 whole entry): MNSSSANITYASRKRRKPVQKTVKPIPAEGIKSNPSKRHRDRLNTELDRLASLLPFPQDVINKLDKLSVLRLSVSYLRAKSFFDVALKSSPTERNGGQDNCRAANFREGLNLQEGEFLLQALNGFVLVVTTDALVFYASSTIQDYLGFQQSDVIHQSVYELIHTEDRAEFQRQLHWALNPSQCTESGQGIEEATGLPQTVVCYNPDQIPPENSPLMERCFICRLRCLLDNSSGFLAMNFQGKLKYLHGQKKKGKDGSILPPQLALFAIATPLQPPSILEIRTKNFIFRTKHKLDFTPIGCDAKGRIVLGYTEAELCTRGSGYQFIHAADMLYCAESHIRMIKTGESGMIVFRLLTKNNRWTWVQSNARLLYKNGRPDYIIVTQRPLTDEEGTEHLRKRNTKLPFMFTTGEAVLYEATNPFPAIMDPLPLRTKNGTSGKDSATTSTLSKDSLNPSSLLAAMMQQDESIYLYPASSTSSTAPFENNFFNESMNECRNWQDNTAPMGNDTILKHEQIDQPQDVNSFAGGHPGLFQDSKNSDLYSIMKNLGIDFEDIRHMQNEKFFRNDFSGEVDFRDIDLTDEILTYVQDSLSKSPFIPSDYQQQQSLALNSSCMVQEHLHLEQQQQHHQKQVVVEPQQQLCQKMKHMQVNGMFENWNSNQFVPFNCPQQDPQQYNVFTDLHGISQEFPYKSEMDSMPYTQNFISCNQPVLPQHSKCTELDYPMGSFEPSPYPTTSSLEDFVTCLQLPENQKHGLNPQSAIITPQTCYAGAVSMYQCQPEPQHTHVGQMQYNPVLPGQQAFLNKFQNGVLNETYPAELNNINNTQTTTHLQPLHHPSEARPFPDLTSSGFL
# Estrogen receptor = target: T5, Estrogen receptor (Homo sapiens, UniProt P03372); test: potentiators of ERα–SRC-1 coactivator binding, dose response, biochemical, TR-FRET, ERα LBD (AID 737)
# T5 sequence (P03372 whole entry): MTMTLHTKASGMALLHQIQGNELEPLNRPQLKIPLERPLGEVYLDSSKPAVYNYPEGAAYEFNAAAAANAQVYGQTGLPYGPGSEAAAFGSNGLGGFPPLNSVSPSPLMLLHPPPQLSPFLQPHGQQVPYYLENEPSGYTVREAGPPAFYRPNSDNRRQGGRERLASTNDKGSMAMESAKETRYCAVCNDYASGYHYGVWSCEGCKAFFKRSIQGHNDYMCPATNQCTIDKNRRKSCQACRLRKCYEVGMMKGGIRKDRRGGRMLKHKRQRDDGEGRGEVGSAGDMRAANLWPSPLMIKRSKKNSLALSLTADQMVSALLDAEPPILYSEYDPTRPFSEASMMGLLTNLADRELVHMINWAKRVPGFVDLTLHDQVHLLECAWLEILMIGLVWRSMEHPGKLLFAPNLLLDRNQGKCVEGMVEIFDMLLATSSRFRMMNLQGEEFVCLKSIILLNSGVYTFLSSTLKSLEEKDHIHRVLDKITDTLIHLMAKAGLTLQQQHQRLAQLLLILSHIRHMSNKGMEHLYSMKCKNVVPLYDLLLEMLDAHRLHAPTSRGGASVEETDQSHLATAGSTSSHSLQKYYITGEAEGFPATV
# Protein skinhead-1 = target: T6, Protein skinhead-1 (Caenorhabditis elegans, UniProt P34707); type: functional
# T6 sequence (P34707 whole entry): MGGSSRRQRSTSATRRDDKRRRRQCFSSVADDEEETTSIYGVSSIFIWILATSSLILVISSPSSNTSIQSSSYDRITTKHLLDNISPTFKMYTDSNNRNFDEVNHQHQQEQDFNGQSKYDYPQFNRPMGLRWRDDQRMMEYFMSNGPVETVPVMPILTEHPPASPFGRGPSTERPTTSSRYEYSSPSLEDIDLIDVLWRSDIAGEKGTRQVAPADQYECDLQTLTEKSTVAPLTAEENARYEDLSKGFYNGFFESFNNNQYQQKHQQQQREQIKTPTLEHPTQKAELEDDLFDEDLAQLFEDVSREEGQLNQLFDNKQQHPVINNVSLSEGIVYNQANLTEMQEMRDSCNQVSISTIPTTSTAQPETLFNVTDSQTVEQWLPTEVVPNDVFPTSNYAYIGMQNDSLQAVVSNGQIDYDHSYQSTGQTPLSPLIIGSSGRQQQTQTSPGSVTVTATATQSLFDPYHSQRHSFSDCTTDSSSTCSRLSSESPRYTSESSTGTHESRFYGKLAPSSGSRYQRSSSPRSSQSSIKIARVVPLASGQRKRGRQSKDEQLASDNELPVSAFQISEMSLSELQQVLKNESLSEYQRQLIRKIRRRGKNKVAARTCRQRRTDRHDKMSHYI
# [7] = LGR2 antagonists, dose response, cell-based, HEK293, CRE-luciferase reporter, cherry pick, set 2 (AID 743343); type: functional;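 also: transfected cells were stimulated with diluted bursicon conditioned medium after compound addition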
# [8] = MC4R antagonists, dose response, counter-screen for LGR2 antagonist project, cell-based, plate reader, cherry pick (AID 743444); type: functional;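 also: transfected HEK 293 cells stimulated with alpha-MSH peptide; potency of inhibitors of the alpha-MSH evoked signal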
# [9] = THP-1 cell cytotoxicity, dose response, cytotoxicity control for Vif-APOBEC3G degradation inhibitor project, THP-1 cells (AID 1117359); type: functional; details: Human immunodeficiency virus 1, THP-1
structure (smiles),measurement,setting,value
Cc1ccc(/N=C/c2cccc(O)c2O)c(C)c1,EC50,[1],> 150 µM (not active)
same,EC50,Streptokinase A,> 150 µM (not active)
same,IC50,[2],23.3 µM (active)
same,EC50,Streptococcus,7.41 µM (active)
same,IC50,[3],14 µM (active)
N/C(=N\N=C\c1ccc([N+](=O)[O-])cc1)c1nonc1N,EC50,[4],> 55.7 µM (not active)
same,EC50,[5],> 55.7 µM (not active)
Cc1nnc(N2C(=O)c3cccc4c([N+](=O)[O-])ccc(c34)C2=O)s1,EC50,[6],0.733 µM (active)
O=C(Nc1cccnc1)c1cc(-c2ccc3c(c2)OCO3)on1,EC50,Estrogen receptor,12.9 µM (not active)
same,IC50,Protein skinhead-1,> 100 µM (inactive)
same,AC50,[7],5.5 µM (active)
same,AC50,[8],5.56 µM (active)
Cc1cc(Nc2ccc(Br)cc2)n2nc(C)nc2n1,EC50,[6],0.117 µM (active)
same,CC50,[9],> 40 µM (active)
